In ChEMBL document CHEMBL1764967, “Introduction of aromatic group on 4'-OH of α-GalCer manipulated NKT cell cytokine production” (Bioorg Med Chem, 2011):
Activity calls are given as the source filed them.

How the values were obtained:
Mus musculus [1] = test: Immunostimulatory activity in C57BL/6 mouse assessed as maximum INF-gamma level in serum at 10 ug/ml, iv after 12 hrs by ELISA; format: functional, organism-based
Mus musculus [2] = test: Immunostimulatory activity in C57BL/6 mouse assessed as maximum IL4 level in serum at 10 ug/ml, iv after 2 hrs by ELISA; format: functional, organism-based
Mus musculus [3] = organism: Mus musculus; test: Immunostimulatory activity in mouse DN3A4-1.2 hybridoma cells expressing TCR assessed as IL2 level after 24 to 48 hrs by ELISA; format: functional
Mus musculus [4] = test: Immunostimulatory activity in C57BL/6 mouse assessed as IL4 level in serum at 10 ug/ml, iv after 2 to 24 hrs by ELISA; format: functional, organism-based; conditions: TDE = time-dependent effect
Splenocyte [5] = test: Immunostimulatory activity in C57BL/6 mouse Splenocytes assessed as release of IL4 after 72 hrs by ELISA; format: functional, cell-based
Mus musculus [6] = organism: Mus musculus; test: Immunostimulatory activity in mouse DN3A4-1.4 hybridoma cells expressing TCR assessed as IL2 level after 24 to 48 hrs by ELISA; format: functional
Mus musculus [7] = test: Immunostimulatory activity in C57BL/6 mouse assessed as maximum INF-gamma level in serum at 10 ug/ml, iv after 2 hrs by ELISA; format: functional, organism-based
Mus musculus [8] = organism: Mus musculus; test: Immunostimulatory activity in mouse N38.2H4 hybridoma cells expressing TCR assessed as IL2 level after 24 to 48 hrs by ELISA; format: functional
Mus musculus [9] = organism: Mus musculus; test: Immunostimulatory activity in mouse DN3A4-1.2 cells expressing TCR assessed as IL2 level after 24 hrs by ELISA in presence of mouse CD1d protein; format: functional, cell-based
N38.2H4 = test: Immunostimulatory activity in mouse N38.2H4 cells expressing TCR assessed as IL2 level after 24 by ELISA in presence of mouse CD1d protein; format: functional, cell-based
Mus musculus [10] = test: Immunostimulatory activity in C57BL/6 mouse assessed as INF-gamma level in serum at 10 ug/ml, iv after 2 to 24 hrs by ELISA; format: functional, organism-based; conditions: TDE = time-dependent effect
Mus musculus [11] = test: Immunostimulatory activity in C57BL/6 mouse assessed as maximum IL4 level in serum at 10 ug/ml, iv after 4 hrs by ELISA; format: functional, organism-based
Splenocyte [12] = test: Immunostimulatory activity in C57BL/6 mouse Splenocytes assessed as release of IL4 at 1000 ng/ml after 72 hrs by ELISA; format: functional, cell-based

Measured: Activity

CCCCCCCCCCCCCCCCCCCCCCCCCC(=O)N[C@@H](CO[C@H]1O[C@H](CO)[C@H](OCCCc2ccccc2)[C@H](O)[C@H]1O)[C@H](O)[C@H](O)CCCCCCCCCCCCCC
active: Mus musculus [1] | Mus musculus [2] | Mus musculus [3] | Mus musculus [4] tde | Splenocyte [5] | Mus musculus [6] | Mus musculus [7] | Mus musculus [8] | Mus musculus [9] | N38.2H4 | Mus musculus [10] tde

CCCCCCCCCCCCCCCCCCCCCCCCCC(=O)N[C@@H](CO[C@H]1O[C@H](CO)[C@H](O)[C@H](O)[C@H]1O)[C@H](O)[C@H](O)CCCCCCCCCCCCCC
active: Mus musculus [2] | Mus musculus [4] tde | Mus musculus [7] | Mus musculus [9] | N38.2H4 | Mus musculus [10] tde

CCCCCCCCCCCCCCCCCCCCCCCCCC(=O)N[C@@H](CO[C@H]1O[C@H](CO)[C@H](OC(=O)c2ccccc2)[C@H](O)[C@H]1O)[C@H](O)[C@H](O)CCCCCCCCCCCCCC
active: Mus musculus [11] | Mus musculus [3] | Splenocyte [12] | Mus musculus [4] tde | Mus musculus [6] | Mus musculus [8] | Mus musculus [9] | N38.2H4 | Mus musculus [10] tde

CCCCCCCCCCCCCCCCCCCCCCCCCC(=O)N[C@@H](CO[C@H]1O[C@H](CO)[C@H](OCCc2ccccc2)[C@H](O)[C@H]1O)[C@H](O)[C@H](O)CCCCCCCCCCCCCC
active: Mus musculus [11] | Mus musculus [1] | Mus musculus [3] | Splenocyte [12] | Mus musculus [4] tde | Mus musculus [6] | Mus musculus [8] | Mus musculus [10] tde
